What was measured:
paw tissues = experiment: Histology (H&E staining) of paw tissues after CAR injection; format: in vivo, Sprague-Dawley rats; conditions: for inflammatory cell infiltration and edema / histological score (H&E): rat paw tissues 6 h after CAR injection
Method: (§1) The biological effect of the complex, in comparison with the psilocin solution, against inflammation was tested by their administration to 8-12 weeks old male rats.
(§2) A composition comprising complex according to example 1, wherein the ratio of β-carotene to 2-hydroxypropylether β-cyclodextrin was 1:5, was used. Complexes (psilocin, β-carotene, ascorbic acid with ratio 1:1:1 and 2-hydroxypropylether β-cyclodextrin) containing two different concentrations of psilocin have been tested: • a complex containing 3 mg of psilocin, • a complex containing 10 mg of psilocin.
(§3) The study was performed using male Sprague-Dawley rats (200-250 g; Envigo, Milan, Italy). Food and water were accessible ad libitum. Rats were concurrently subjected to a singular subplantar injection of CAR (100 pL of saline solution containing 1% CAR). Paw edema was measured with a plethysmometer (Ugo Basile, Comerio, Varese, Italy) (Salvemini, D.; Wang, Z.-Q.; Wyatt, P. S.; Bourdon, D. M.; Marino, M. H.; Manning, P. T.; Currie, M. G., “Nitric oxide: A key mediator in the early and late phase of carrageenan-induced rat paw inflammation”, Br. J. Pharmacol. 1996, 118, 829-838) prior to CAR injection and every hour for 6 h. Edema was expressed as the increase in paw volume (mL) after CAR injection relative to the pre-injection value for all animals. Scores were expressed as paw volume difference (mL).
Paw tissues were collected 6 h after CAR injection. Samples were fixed in 10% formaldehyde solution in phosphate buffer saline (PBS) at room temperature for 24 h, dehydrated by graded series of ethanol and at the list embedded in Paraplast (Sherwood Medical, Mahwah, NJ, USA). Sections of 7-pm thickness were cut with a microtome, deparaffinized with xylene and stained with hematoxylin and eosin (H&E). All sections were examined using an Axiovision Zeiss (Milan, Italy) microscope by two investigators blinded to the treatment conditions. […]
All values are expressed as mean±standard deviation (SD) of N=10 observations. […] Data were analyzed by one-way ANOVA followed by a Bonferroni post-hoc test for multiple comparisons. […]

mechanical allodynia = experiment: Pain behavior: mechanical allodynia, Von Frey test after CAR injection; format: in vivo, Sprague-Dawley rats; conditions: rats, 1-6 hours post CAR injection, as compared to CAR group
CAR-induced paw edema = experiment: CAR-induced paw edema, paw volume by plethysmometer; format: in vivo, Sprague-Dawley rats; conditions: rats, measured every hour for 6 h after CAR, vs CAR group
Method: as §1, §2, §3
All values are expressed as mean±standard deviation (SD) of N=10 observations. For the in-vivo studies, N represents the number of animals studied. Data were analyzed by one-way ANOVA followed by a Bonferroni post-hoc test for multiple comparisons. A p-value less than 0.05 will be considered significant. #p<0.05 vs. CTR, *p<0.05 vs. CAR, ##p<0.01 vs. CTR, **p<0.01 vs. CAR, ###p<0.001 vs. CTR, ***p<0.001 vs. CAR, °p<0.05 vs. 3 m/Kg, § p<0.05 vs. 10 mg/Kg, °°p<0.01 vs. 3 mg/Kg, §§ p<0.01 vs. 10 mg/Kg, 000 p<0.001 vs. 3 mg/Kg, §§§ p<0.001 vs. 10 mg/Kg.

MPO = MPO analysis (marker of neutrophil infiltration) after CAR injection; format: in vivo, Sprague-Dawley rats; conditions: rats; for MPO activity: vs CAR group
Method: as §1, §2, §3
The activity of MPO (myeloperoxidase is an enzyme released by neutrophils and used as a marker of neutrophil infiltration) was assessed as previously described (Mullane, K. M.; Kraemer, R.; Smith, B. “Myeloperoxidase activity as a quantitative assessment of neutrophil infiltration into ischemic myocardium.” J. Pharmacol. Methods 1985, 14, 157-167). The rate of change in absorbance was calculated spectrophotometrically at 650 nm. MPO activity was measured in U per gram weight of wet tissue and was quantified as the quantity of enzyme degrading […] of peroxide 1 min at 37° C.
All values are expressed as mean±standard deviation (SD) of N=10 observations. For the in-vivo studies, N represents the number of animals studied. […]

[1] = Stability test by NMR spectroscopy; format: physicochemical; conditions: Sample A: 22° C. with no light irradiation
Method: The same specimens were analyzed also by NMR Spectroscopy using Varian 500 MHz spectrometer equipped with a OneNMR probe.
Samples were recorded using a PRESAT pulse sequence suppressing the signal of H2O and EtOH acquiring 128 scans for each spectrum. H2O (4.64 ppm) was used as reference line.
For the NMR analysis, all samples were treated as follow: 530 pL were poured into NMR tube (5 mm i.d.) then coaxial tube was filled with D2O to lock the solvent frequency.

[2] = Stability test of psilocin for 24 hours: darkening and psilocin concentration by UHPLC-MS; format: physicochemical
Method: The inclusion complex obtained by the resuspension of the freeze-dried complex of (β-carotene and 2-hydroxypropylether p-cyclodextrin in the ratio 1:5 with 3 mg of psilocin dissolved in 1 mL of H2O:EtOH (8:2) solution, was tested to evaluate the inclusion complex stability.
The complex stability was evaluated for 24 hours, under different environmental conditions: • Sample A) 22° C. with no light irradiation • Sample B) 30° C. with no light irradiation • Sample C) 22° C. under UV irradiation (using an UVA lamp A=365 nm) • Sample D) Freeze-dried for 30 days • Sample E) 30° C. under UV irradiation (using an UVA lamp A=365 nm)
All the complex stability tests were compared to a “blank” psilocin solution in H2O:EtOH (8:2).
For evaluating psilocin stability chromatographic analyses were performed using a Nexera X2 UHPLC system coupled to a LCMS-8060 mass spectrometer (Shimadzu, Duisburg, Germany). Data acquisition and processing was performed using the LabSolutions software (version 5.95 Shimadzu). The separation of the various tryptamines was achieved by using an Ascentis Express 90 HILIC column (150×2.1 mm, 2.7 pm) (Merck Life Science) and a mobile phase composed of ammonium formate 0.1 M in water as solvent A, and acetonitrile as solvent B. The gradient program was as follows: 0 min, 90% B; 3 min, 75% B; 10 min, 20% B; 13 min 20% B; 15 min 90% B. The flow rate was 0.5 mL min−1; the column oven was set at 40° C. and the injection volume was 1 pL. Mobile phases were filtered through a 0.45 µm membrane.
The synthetic psilocin was weighed in a volumetric flask and diluted with water: ethanol (8:2) at a concentration of 3000 ppm. Then, it was serially diluted to get a final concentration of 0.10 ppm and analyzed according to the above reported method, in order to verify the stability for 24 hours. At time 0, it was 0.11 ppm. After 24 hours the concentration decreased to 0.04 ppm, showing a concentration loss of 60%.

[3] = Sample B: 30° C. with no light irradiation, 24 hours

Structure (SMILES): CN(C)CCc1c[nH]c2cccc(O)c12 [psilocin, 4-hydroxy-N,N-dimethyltryptamine]
- inflammatory cell infiltration and edema / histological score (H&E) (paw tissues; 3 mg/Kg): meaningfully decreased
- inflammatory cell infiltration and edema / histological score (H&E) (paw tissues; 10 mg/Kg): meaningfully decreased
- histological anti-inflammatory effect of psilocin as compared to the complex administration (paw tissues; all doses (3 and 10 mg/Kg), rats): better anti-inflammatory effect
- paw-withdrawal threshold (Von Frey) (mechanical allodynia; 3 mg/Kg): significantly increased
- paw-withdrawal threshold (Von Frey) (mechanical allodynia; 10 mg/Kg): significantly increased
- CAR-induced paw edema (paw volume) (CAR-induced paw edema; 3 mg/Kg): reduction of paw volume
- CAR-induced paw edema (paw volume) (CAR-induced paw edema; 3 mg/Kg, listed as Psilocin): significantly reduced
- CAR-induced paw edema (paw volume) (CAR-induced paw edema; 10 mg/Kg): reduction of paw volume
- CAR-induced paw edema (paw volume) (CAR-induced paw edema; 10 mg/Kg, listed as Psilocin): significantly reduced
- MPO activity (MPO; 3 mg/Kg): reduced the MPO activity
- MPO activity (MPO; 10 mg/Kg): reduced the MPO activity
- MPO activity effect of psilocin as compared to the complex administration (MPO; all doses (3 and 10 mg/Kg)): significant effect
- degradation product by NMR compared with the other solutions [1]: less degradation product
- darkening ([2]; Sample A: 22° C. with no light irradiation, 24 h): started the darkening process since the first 2 hours of storing
- psilocin concentration after 24 hours ([2]; Sample A: 22° C. with no light irradiation, H2O:EtOH (8:2), after 24 hours): 0.04 ppm
- psilocin concentration at time 0 ([2]; Sample A: 22° C. with no light irradiation, H2O:EtOH (8:2), time 0): 0.11 ppm
- loss of psilocin concentration ([2]; Sample A: 22° C. with no light irradiation, after 24 hours): 60%
- psilocin concentration trend ([2]; Sample A: 22° C. with no light irradiation, time 0 vs after 24 hours): decreased
- darkening [2, 3]: darkening process was observed
- psilocin concentration trend [2, 3]: decreased during 24 hours
- darkening ([2]; Sample C: 22° C. under UV irradiation (365 nm), 24 h): started the darkening process since the first 2 hours of storing
- psilocin concentration trend ([2]; Sample C: 22° C. under UV irradiation (365 nm), 24 hours): decreasing during 24 hours
- darkening ([2]; Sample D: freeze-dried, redissolved 30 days after freeze-drying, ambient temperature, 24 h): started the darkening process since the first 2 hours of storing
- darkening ([2]; Sample E: 30° C. under UV irradiation (365 nm), 24 h): Darkening was observed
- psilocin concentration trend ([2]; Sample E: 30° C. under UV irradiation (365 nm), 24 hours): decreased during 24 hours
